Where two headings read alike, the source gives them in different places.
Key:
[1] = pKa; type: physicochemical
Description: TABLE 1 Model development and model parameters. | column: Value

[2] = In vitro Caco-2 cell permeability; type: in vitro ADME; conditions: human
Description: The first-order absorption model has different absorption rate constants (ka) and fraction available from dosage form (fa) to simulate absorption processes in fasting and fed states. […] Caco-2 (human colorectal adenocarcinoma) cells are used to model the intestinal epithelial barrier. The Simcyp (Version 19.0, Certara Inc., Sheffield, UK) minimal PBPK, which treats all organs other than the intestine and liver as a single compartment ([Rowland Yeo et al., 2010]), was selected, along with a single adjusting compartment (SAC) distribution model. The SAC is a nonphysiologic compartment that permits adjustment to the drug concentration profile in the systemic compartment ([Ke et al., 2016]).

[3] = target: T1, CYP2C9 (Homo sapiens, UniProt P11712); assay: CYP2C9 inhibition in human liver microsomes (diclofenac probe)
T1 sequence (P11712 whole entry): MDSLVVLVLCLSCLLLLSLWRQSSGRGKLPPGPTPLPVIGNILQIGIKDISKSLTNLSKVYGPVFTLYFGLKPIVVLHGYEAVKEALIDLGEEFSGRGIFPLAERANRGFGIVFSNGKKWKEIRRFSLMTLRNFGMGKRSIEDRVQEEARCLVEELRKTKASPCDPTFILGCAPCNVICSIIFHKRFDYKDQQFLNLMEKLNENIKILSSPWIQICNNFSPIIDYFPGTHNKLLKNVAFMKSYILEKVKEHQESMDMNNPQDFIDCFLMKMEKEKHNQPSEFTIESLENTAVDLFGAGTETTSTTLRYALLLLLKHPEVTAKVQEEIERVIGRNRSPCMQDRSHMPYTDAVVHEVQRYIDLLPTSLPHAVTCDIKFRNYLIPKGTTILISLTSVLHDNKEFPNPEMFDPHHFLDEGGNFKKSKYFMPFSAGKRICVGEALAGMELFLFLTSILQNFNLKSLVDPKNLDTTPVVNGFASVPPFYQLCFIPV
Method: (§1) Ki=IC50/1+S/Km (1) Where IC50 signifies the half-maximum inhibitory concentration; S, the concentration of P450 marker substrate; and K m , the Michaelis constant within the Michaelis-Menten equation, which is in turn used to characterize substrate-enzyme binding kinetics.
(§2) The Michaelis constant (K m ) of CYP2C9 incubated with diclofenac was obtained from reported data ([Lee et al., 2014]). Methods used to calculate the Ki of CYP2C19 and CYP2C9 were similar.

[4] = target: CYP2C19 (Homo sapiens, UniProt P33261); assay: CYP2C19 inhibition in human liver microsomes
Chain of CYP2C19 (P33261 whole entry): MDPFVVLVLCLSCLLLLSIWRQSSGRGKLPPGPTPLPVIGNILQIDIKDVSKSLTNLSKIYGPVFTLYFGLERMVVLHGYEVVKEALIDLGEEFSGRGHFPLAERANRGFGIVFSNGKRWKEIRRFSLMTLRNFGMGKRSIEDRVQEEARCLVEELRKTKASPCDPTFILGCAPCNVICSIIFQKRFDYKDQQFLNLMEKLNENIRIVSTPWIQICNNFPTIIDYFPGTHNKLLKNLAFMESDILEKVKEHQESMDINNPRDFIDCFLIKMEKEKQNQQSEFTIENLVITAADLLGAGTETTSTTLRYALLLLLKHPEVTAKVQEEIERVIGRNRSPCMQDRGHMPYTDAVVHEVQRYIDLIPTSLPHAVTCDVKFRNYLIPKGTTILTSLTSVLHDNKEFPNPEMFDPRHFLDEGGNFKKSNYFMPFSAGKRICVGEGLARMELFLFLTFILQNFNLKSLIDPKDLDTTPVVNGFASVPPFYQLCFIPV
Method: as §1, §2

[5] = target: P-gp (Homo sapiens, UniProt P08183); assay: P-gp inhibition (Ki calculated from IC50); type: in vitro ADME; conditions: calculated with IC50, substrate concentration and substrate Km
Chain of P-gp (P08183 whole entry): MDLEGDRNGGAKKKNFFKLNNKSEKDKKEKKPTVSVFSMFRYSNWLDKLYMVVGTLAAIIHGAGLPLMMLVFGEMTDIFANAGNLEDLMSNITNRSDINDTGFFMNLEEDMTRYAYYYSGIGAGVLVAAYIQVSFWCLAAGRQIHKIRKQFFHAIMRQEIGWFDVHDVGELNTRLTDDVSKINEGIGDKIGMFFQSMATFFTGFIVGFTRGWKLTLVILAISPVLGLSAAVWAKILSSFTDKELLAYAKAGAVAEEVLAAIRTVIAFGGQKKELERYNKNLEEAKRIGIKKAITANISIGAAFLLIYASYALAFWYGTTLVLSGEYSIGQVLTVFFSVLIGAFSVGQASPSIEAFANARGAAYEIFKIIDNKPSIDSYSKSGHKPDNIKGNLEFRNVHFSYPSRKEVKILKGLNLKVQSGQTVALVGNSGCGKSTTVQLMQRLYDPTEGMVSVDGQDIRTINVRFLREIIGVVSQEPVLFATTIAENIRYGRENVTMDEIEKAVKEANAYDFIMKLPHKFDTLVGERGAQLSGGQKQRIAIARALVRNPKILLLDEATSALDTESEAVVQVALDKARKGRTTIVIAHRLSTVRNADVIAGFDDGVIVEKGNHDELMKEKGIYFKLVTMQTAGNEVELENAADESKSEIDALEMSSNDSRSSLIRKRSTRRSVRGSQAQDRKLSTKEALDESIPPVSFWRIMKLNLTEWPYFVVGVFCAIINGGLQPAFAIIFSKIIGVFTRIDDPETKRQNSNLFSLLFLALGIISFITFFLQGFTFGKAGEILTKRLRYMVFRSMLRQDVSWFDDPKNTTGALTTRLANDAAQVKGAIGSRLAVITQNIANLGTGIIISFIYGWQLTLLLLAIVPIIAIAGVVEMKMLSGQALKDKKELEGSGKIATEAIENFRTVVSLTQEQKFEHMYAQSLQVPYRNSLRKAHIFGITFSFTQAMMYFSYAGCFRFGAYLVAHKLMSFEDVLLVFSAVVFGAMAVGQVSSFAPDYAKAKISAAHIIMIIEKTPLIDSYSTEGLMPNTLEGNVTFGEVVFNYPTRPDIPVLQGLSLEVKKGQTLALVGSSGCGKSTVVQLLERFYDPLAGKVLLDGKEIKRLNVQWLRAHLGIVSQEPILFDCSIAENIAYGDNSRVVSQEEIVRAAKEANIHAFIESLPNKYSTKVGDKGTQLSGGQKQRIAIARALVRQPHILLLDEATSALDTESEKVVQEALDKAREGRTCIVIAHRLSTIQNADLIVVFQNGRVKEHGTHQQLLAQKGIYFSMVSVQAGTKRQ

[6] = tested on: CYP1A2; assay: CYP1A2 mRNA induction in cultured human hepatocytes; type: cell-based; conditions: in vitro studies
[7] = tested on: CYP2B6; assay: CYP2B6 mRNA induction in cultured human hepatocytes; type: cell-based; conditions: for EC50: human, cultured human hepatocytes
[8] = Human mass balance study with [14C]olverembatinib (NCT04126707); type: in vivo
Method: After a 3-day washout period, they were pretreated with 200 mg of oral itraconazole once daily for 4 days to inhibit CYP3A4 (Days 5–8). […] After a 3-day washout, subjects were pretreated with 600 mg of oral rifampicin once daily for 7 days to induce CYP3A4 (Days 5–11). […] Blood samples were collected immediately before and after drug administration at 0.5, 1, 2, 4, 6, 8, 12, 24, 48, 72, and 96 h.

[9] = Phase 1 dose escalation study (renal clearance); conditions: human, in vivo; 12 Chinese patients, 50 mg oral on Day 1
[10] = target: MATE1 (Homo sapiens, UniProt Q96FL8); assay: Transporter substrate/inhibitor assessment, MATE1; type: in vitro ADME
Chain of MATE1 (Q96FL8 whole entry, species assumed): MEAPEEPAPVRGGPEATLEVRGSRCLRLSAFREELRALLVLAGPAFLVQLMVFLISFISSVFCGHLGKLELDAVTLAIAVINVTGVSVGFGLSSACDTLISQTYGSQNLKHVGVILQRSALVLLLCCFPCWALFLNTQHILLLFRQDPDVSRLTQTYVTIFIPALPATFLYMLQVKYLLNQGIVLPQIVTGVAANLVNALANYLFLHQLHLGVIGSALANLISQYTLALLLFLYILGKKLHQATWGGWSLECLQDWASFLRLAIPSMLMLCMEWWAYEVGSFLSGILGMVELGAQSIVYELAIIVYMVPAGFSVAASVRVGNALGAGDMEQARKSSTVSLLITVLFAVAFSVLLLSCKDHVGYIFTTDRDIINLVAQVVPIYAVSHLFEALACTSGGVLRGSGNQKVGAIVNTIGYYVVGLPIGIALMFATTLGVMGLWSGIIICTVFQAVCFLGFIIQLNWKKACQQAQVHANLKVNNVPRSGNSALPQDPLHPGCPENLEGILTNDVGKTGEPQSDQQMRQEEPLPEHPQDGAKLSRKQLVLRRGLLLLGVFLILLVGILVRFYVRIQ

[11] = tested on: CYP2C9
[12] = tested on: imatinib-resistant and imatinib-sensitive gastrointestinal stromal tumor cell lines; parameters: method as in Liu et al., 2019; conditions: imatinib-resistant and imatinib-sensitive GIST cell lines; ref Liu et al., 2019; cited from earlier work
[13] = in vitro; conditions: human
[14] = target: T1, CYP2C9; assay: Intrinsic clearance in human recombinant CYP2C9
[15] = single radiolabeled 30 mg dose, healthy subjects

Cc1ccc(C(=O)Nc2ccc(CN3CCN(C)CC3)c(C(F)(F)F)c2)cc1C#Cc1cnc2[nH]ncc2c1 [olverembatinib, Olverembatinib]
pKa ([1]; read-out: pKa 1): 2.9 | pKa ([1]; read-out: pKa 2): 10.9 | Papp [2]: 0.08 ×10⁻⁶ cm/s | Ki [3]: 1140 nM | CYP2C9 inhibition, strength ([3]; microsomes): weak | Ki [4]: 1920 nM | CYP2C19 inhibition, strength ([4]; microsomes): weak | Ki [5]: 2230 nM | CYP1A2 induction, strength [6]: weak | EC50 ([7]; CYP2B6 mRNA, lot AIH, read-out: EC50): 828 nM | EC50 ([7]; CYP2B6 mRNA, lot HUM182851, read-out: EC50): 290 nM | EC50 ([7]; human hepatocytes, mRNA, mean of two lots, read-out: IndC50 CYP2B6 (Mean EC50)): 559 nM | CYP2B6 induction, strength ([7]; in vitro studies): weak | AUC Obs. ([8]; Chinese healthy volunteers, fasting, 26.85 mg SD): 153 h?ng/mL | Cmax ([8]; male, human, plasma, oral, Chinese healthy volunteers, fasting, 26.85 mg SD): 8.09 ng/mL | Tmax ([8]; male, human, plasma, oral, Chinese healthy volunteers, fasting, 26.85 mg SD, read-out: Tmax Obs. (median)): 6 h | cleared drug unchanged in feces [8, 15]: About 23.95% | eliminated as the parent drug in urine [8, 15]: 0.02% | dose recovered in urine ([8]; single radiolabeled 30 mg dose, healthy subjects, within 96 h): 1.57% | dose recovered in feces ([8]; single radiolabeled 30 mg dose, healthy subjects, within 216 h): 87.68% | CL renal [9]: 2.2 mL/min | substrate or inhibitor of MATE1 [10]: neither a substrate nor inhibitor | CYP2C9 induction, strength ([11]; hepatocytes): weak | EC50 ([11]; human): 323 nM | antiproliferative activity compared with ponatinib [12]: equivalent or more potent antiproliferative activity | microsomal CLint [13]: 5.26 µL/min/mg | CLint CYP2C9 [14]: 0.022 µL/min/pmol CYP

Source: paper PMC9792776 (Frontiers in Pharmacology, 2022)
